Measurements from ChEMBL document CHEMBL1138874, “Design and synthesis of a series of novel pyrazolopyridines as HIF-1alpha prolyl hydroxylase inhibitors” (Bioorg Med Chem Lett, 2006).

Each compound was assayed on HEK293 (assay: cells). Conditions: Homo sapiens.
Work on `O=C(O)c1cnn(-c2ccc(COCc3ccc(Cl)cc3)cn2)c1` yielded an EC50 of 7.4 µM.
With `O=C(O)c1cnn(-c2ccc(COCc3cccc(Cl)c3)cn2)c1` the EC50 was 3.8 µM.
In the case of `O=C(O)c1cnn(-c2ccc(COCc3ccccc3)cn2)c1`, the EC50 is reported as 25 µM.
For `COc1ccc(COCc2ccc(-n3cc(C(=O)O)cn3)nc2)cc1`, the EC50 was 1 µM.
In the case of `N#Cc1ccccc1-c1ccc(COCc2ccc(-n3cc(C(=O)O)cn3)nc2)cc1`, the EC50 is reported as greater than 100 µM.
`COc1cccc(COCc2ccc(-n3cc(C(=O)O)cn3)nc2)c1` gave an EC50 greater than 100 µM.
Work on `O=C(O)c1cnn(-c2ccc(COCc3cccc(C(F)(F)F)c3)cn2)c1` yielded an EC50 of 11 µM.
